Measurements from patent US8906826B2, “Herbicidal compositions comprising 4-amino-3-chloro-5-fluoro-6-(4-chloro-2-fluoro-3-methoxyphenyl) pyridine-2-carboxylic acid or a derivative thereof and imidazolinones” (Dow AgroSciences, LLC, priority 2012, dated 2014).

Legend:
LEFCH = experiment: Postemergence foliar-applied, direct seeded rice weeds (Example I); type: in vivo, Leptochloa chinensis (L.) Nees
Text: Seeds or nutlets of the desired test plant species were planted in a soil matrix prepared by mixing a loam or sandy loam soil (e.g., 28.6 percent silt, 18.8 percent clay, and 52.6 percent sand, with a pH of about 5.8 and an organic matter content of about 1.8 percent) and calcareous grit in an 80 to 20 ratio. The soil matrix was contained in plastic pots with a volume of 1 quart and a surface area of 83.6 cm^2. When required to ensure good germination and healthy plants, a fungicide treatment and/or other chemical or physical treatment was applied. The plants were grown for 8-22 days in a greenhouse with an approximate 14 h photoperiod which was maintained at about 29° C. during the day and 26° C. during the night. Nutrients (Peters Excel® 15-5-15 5-Ca 2-Mg and iron chelate) were applied in the irrigation solution as needed and water was added on a regular basis. Supplemental lighting was provided with overhead metal halide 1000-Watt lamps as necessary. The plants were employed for testing when they reached the first through fourth true leaf stage.
Treatments consisted of the acid or esters of 4-amino-3-chloro-5-fluoro-6-(4-chloro-2-fluoro-3-methoxy-phenyl)pyridine-2-carboxylic acid (Compound A), each formulated as an SC (suspension concentrate), and various herbicidal components alone and in combination. Forms of compound A were applied on an acid equivalent basis.
(§1) Other herbicidal components were applied on an acid equivalent basis and include acetolactate synthase (ALS)-inhibiting herbicides (imidazolinone chemical class) imazethapyr ammonium salt formulated as Newpath®, imazamox ammonium salt formulated as Beyond®, imazapic ammonium salt formulated as Plateau®, imazapyr isopropylamine salt formulated as Arsenal®, imazamethabenz-methyl (technical material) and imazaquin isopropylamine salt formulated as Scepter®/Imagine®.
Treatment requirements were calculated based upon the rates being tested, the concentration of active ingredient or acid equivalent in the formulation, and a 12 mL application volume at a rate of 187 L/ha.
For treatments comprised of formulated compounds, measured amounts of compounds were placed individually in 25 mL glass vials and diluted in a volume of 1.25% (v/v) Agri-Dex® crop oil concentrated to obtain 12× stock solutions. […] Application solutions were prepared by adding an appropriate amount of each stock solution (e.g., 1 mL) and diluted to the appropriate final concentrations with the addition of 10 mL of an aqueous mixture of 1.25% (v/v) crop oil concentrate so that the final spray solutions contained 1.25+/−0.05% (v/v) crop oil concentrate. […]
For treatments comprised of formulated and technical compounds, weighed amounts of the technical materials were placed individually in 25 mL glass vials and dissolved in a volume of 97:3 v/v acetone/DMSO to obtain 12× stock solutions, and measured amounts of the formulated compounds were placed individually in 25 mL glass vials and diluted in a volume of 1.5% (v/v) crop oil concentrate or water to obtain 12× stock solutions. […] Application solutions were prepared by adding an appropriate amount of each stock solution (e.g., 1 mL) and diluted to the appropriate final concentrations with the addition of an appropriate amount of an aqueous mixture of 1.5% (v/v) crop oil concentrate so that the final spray solutions contained 1.25% (v/v) crop oil concentrate. As required, additional water and/or 97:3 v/v acetone/DMSO was added to individual application solutions so that the final acetone and DMSO concentrations of the application solutions being compared were 8.1% and 0.25%, respectively.
All stock solutions and applications solutions were visually inspected for compound compatibility prior to application. […]

ECHOR = experiment: In-water applied, transplanted paddy rice weeds (Example II); type: in vivo, Echinochloa oryzoides (Ard.) Fritsch
Protocol: Weed seeds or nutlets of the desired test plant species were planted in puddled soil (mud) prepared by mixing a shredded, non-sterilized mineral soil (50.5 percent silt, 25.5 percent clay, and 24 percent sand, with a pH of about 7.6 and an organic matter content of about 2.9 percent) and water at a 1:1 volumetric ratio. The prepared mud was dispensed in 365 mL aliquots into 16-ounce (oz.) non-perforated plastic pots with a surface area of 86.59 square centimeters (cm^2) leaving a headspace of 3 centimeters (cm) in each pot. Mud was allowed to dry overnight prior to planting or transplanting. Rice seeds were planted in Sun Gro MetroMix® 306 planting mixture, which typically has a pH of about 6.0 to about 6.8 and an organic matter content of about 30 percent, in plastic plug trays. Seedlings at the second or third leaf stage of growth were transplanted into 860 mL of mud contained in 32-oz. non-perforated plastic pots with a surface area of 86.59 cm^2 4 days prior to herbicide application. The paddy was created by filling the headspace of the pots with 2.5 to 3 cm of water. When required to ensure good germination and healthy plants, a fungicide treatment and/or other chemical or physical treatment was applied. The plants were grown for 4-22 days in a greenhouse with an approximate 14 h photoperiod which was maintained at about 29° C. during the day and about 26° C. during the night. Nutrients were added as Osmocote® (19:6:12, N:P:K+minor nutrients) at 2 g per 16-oz. pot and 4 g per 32-oz. pot. Water was added on a regular basis to maintain the paddy flood, and supplemental lighting was provided with overhead metal halide 1000-Watt lamps as necessary. The plants were employed for testing when they reached the first through fourth true leaf stage.
Treatments consisted of the acid or esters of 4-amino-3-chloro-5-fluoro-6-(4-chloro-2-fluoro-3-methoxy-phenyl)pyridine-2-carboxylic acid (compound A) each formulated as an SC and various herbicidal components alone and in combination. Forms of compound A were applied on an acid equivalent basis.
as §1, with “included the” for “include”, “(ALS)-inhibiting imidazolinone” for “(ALS)-inhibiting”, “herbicides” for “herbicides (imidazolinone chemical class)”, “material),” for “material)”, “Scepter®.” for “Scepter®/Imagine®.”
Treatment requirements for each compound or herbicidal component were calculated based upon the rates being tested, the concentration of active ingredient or acid equivalent in the formulation, an application volume of 2 mL per component per pot, and an application area of 86.59 cm^2 per pot.
For formulated compounds, a measured amount was placed in an individual 100 or 200 mL glass vial and was dissolved in a volume of 1.25% (v/v) Agri-Dex® crop oil concentrate to obtain application solutions.
For technical grade compounds, a weighed amount was placed in an individual 100 to 200 mL glass vial and was dissolved in a volume of acetone to obtain concentrated stock solutions. […] The concentrated stock solutions obtained were diluted with an equivalent volume of an aqueous mixture containing 2.5% (v/v) crop oil concentrate so that the final application solutions contained 1.25% (v/v) crop oil concentrate.
Applications were made by injecting with a pipetter appropriate amounts of the application solutions, individually and sequentially, into the aqueous layer of the paddy. Control plants were treated in the same manner with the solvent blank. Applications were made so that all treated plant material received the same concentrations of acetone and crop oil concentrate.
The treated plants and control plants were placed in a greenhouse as described above and water was added as needed to maintain a paddy flood. […]

[1] = Imazethapyr ammonium 8.75 gae/ha
[2] = Compound A Benzyl Ester 8.75 gae/ha
[3] = Compound A Benzyl Ester 17.5 gae/ha

COCc1cnc(C2=NC(C)(C(C)C)C(=O)N2)c(C(=O)O)c1.N (racemic) [Imazamox ammonium, ammonium (±)-2-[4,5-dihydro-4-methyl-4-(1-methylethyl)-5-oxo-1H-imidazol-2-yl]-5-(methoxymethyl)-3-pyridinecarboxylate]
Visual Weed Control (%) - 25 DAA LEFCH Obs (LEFCH; Imazamox ammonium 11.2 gae/ha): 20% | Visual Weed Control (%) - 25 DAA ECHOR Obs (ECHOR; Imazamox ammonium 5.6 gae/ha): 0% | Visual Weed Control (%) - 25 DAA ECHOR Obs (ECHOR; Imazamox ammonium 11.2 gae/ha): 0% | Visual Weed Control (%) - 25 DAA ECHOR Obs (ECHOR; Imazamox ammonium 22.4 gae/ha): 0%

Cc1cnc(C2=NC(C)(C(C)C)C(=O)N2)c(C(=O)O)c1.N (racemic) [Imazapic ammonium, ammonium (±)-2-[4,5-dihydro-4-methyl-4-(1-methylethyl)-5-oxo-1H-imidazol-2-yl]-5-methyl-3-pyridinecarboxylic acid]
Visual Weed Control (%) - 25 DAA LEFCH Obs (LEFCH; Imazapic ammonium 17.5 gae/ha): 50% | Visual Weed Control (%) - 20 DAA LEFCH Obs (LEFCH; Imazapic ammonium 35 gae/ha): 85% | Visual Weed Control (%) - 25 DAA ECHOR Obs (ECHOR; Imazapic ammonium 4.38 gae/ha): 0% | Visual Weed Control (%) - 25 DAA ECHOR Obs (ECHOR; Imazapic ammonium 8.75 gae/ha): 0% | Visual Weed Control (%) - 25 DAA CHOR Obs (ECHOR; Imazapic ammonium 17.5 gae/ha): 0% | Visual Weed Control (%) - 25 DAA ECHOR Obs (ECHOR; Imazapic ammonium 17.5 gae/ha): 0% | Visual Weed Control (%) - 19 DAA ECHOR Obs (ECHOR; Imazapic ammonium 35 gae/ha): 78%

CCc1cnc(C2=NC(C)(C(C)C)C(=O)N2)c(C(=O)O)c1.N (racemic) [Imazethapyr ammonium, ammonium (±)-2-[4,5-dihydro-4-methyl-4-(1-methylethyl)-5-oxo-1H-imidazol-2-yl]-5-ethyl-3-pyridinecarboxylate]
Visual Weed Control (%) - 25 DAA LEFCH Obs (LEFCH; [1]): 20% | Visual Weed Control (%) - 25 DAA ECHOR Obs (ECHOR; [1]): 0% | Visual Weed Control (%) - 25 DAA ECHOR Obs (ECHOR; Imazethapyr ammonium 17.5 gae/ha): 0% | Visual Weed Control (%) - 25 DAA ECHOR Obs (ECHOR; Imazethapyr ammonium 35 gae/ha): 25%

COc1c(Cl)ccc(-c2nc(C(=O)O)c(Cl)c(N)c2F)c1F [Compound A Acid, 4-amino-3-chloro-6-(4-chloro-2-fluoro-3-methoxyphenyl)-5-fluoropyridine-2-carboxylic acid]
Visual Weed Control (%) - 25 DAA LEFCH Obs (LEFCH; Compound A Acid 4.38 gae/ha): 0% | Visual Weed Control (%) - 25 DAA LEFCH Obs (LEFCH; Compound A Acid 8.75 gae/ha): 10% | Visual Weed Control (%) - 25 DAA LEFCH Obs (LEFCH; Compound A Acid 17.5 gae/ha): 45% | Visual Weed Control (%) - 20 DAA LEFCH Obs (LEFCH; Compound A Acid 19.4 gae/ha): 5% | Visual Weed Control (%) - 25 DAA CHOR Obs (ECHOR; Compound A Acid 8.75 gae/ha): 0% | Visual Weed Control (%) - 25 DAA ECHOR Obs (ECHOR; Compound A Acid 8.75 gae/ha): 0% | Visual Weed Control (%) - 22 DAA ECHOR Obs (ECHOR; Compound A Acid 10.6 gae/ha): 15% | Visual Weed Control (%) - 25 DAA CHOR Obs (ECHOR; Compound A Acid 17.5 gae/ha): 0% | Visual Weed Control (%) - 25 DAA ECHOR Obs (ECHOR; Compound A Acid 17.5 gae/ha): 0% | Visual Weed Control (%) - 25 DAA CHOR Obs (ECHOR; Compound A Acid 35 gae/ha): 10% | Visual Weed Control (%) - 25 DAA ECHOR Obs (ECHOR; Compound A Acid 35 gae/ha): 10% | Visual Weed Control (%) - 19 DAA ECHOR Obs (ECHOR; Compound A Acid 42 gae/ha): 15% | Visual Weed Control (%) - 22 DAA ECHOR Obs (ECHOR; Compound A Acid 42.4 gae/ha): 40%

COc1c(Cl)ccc(-c2nc(C(=O)OCc3ccccc3)c(Cl)c(N)c2F)c1F [Compound A Benzyl Ester, benzyl ester of 4-amino-3-chloro-5-fluoro-6-(4-chloro-2-fluoro-3-methoxy-phenyl)pyridine-2-carboxylic acid]
Visual Weed Control (%) - 25 DAA LEFCH Obs (LEFCH; [2]): 70% | Visual Weed Control (%) - 25 DAA LEFCH Obs (LEFCH; [3]): 70% | Visual Weed Control (%) - 25 DAA ECHOR Obs (ECHOR; [2]): 0% | Visual Weed Control (%) - 22 DAA ECHOR Obs (ECHOR; [3]): 30%
